Measurements as given in US20150284375A1 (AJINOMOTO CO., INC., priority 2012, published 2015).
Like-named read-outs stand apart in the source and are kept apart here.

Target: T1, human TRPA1 (Homo sapiens, UniProt O75762)
T1 construct: expressed in transfected cells; host or cells: Human embryonic kidney-derived 293T cells, transiently transfected with the pcDNA3.1/zeo(+) human TRPA1 plasmid
Assay: Measurement of TRPA1 antagonist activity (intracellular calcium increase, FLIPR, allylisothiocyanate stimulation)
Assay type: cell-based
Conditions: read-out: antagonism hTRPA1
Outline: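 IC50 derives from a sigmoid fit of inhibition of the 5-min FLIPR fluorescence change evoked by 20 μM allylisothiocyanate, normalized between agonist and buffer responses. Test substance, diluted in HBSS/20 mM HEPES pH 7.2 plus 0.1% BSA, was applied 10 min beforehand at room temperature to Calcium4-loaded 293T cells transiently expressing human TRPA1.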

[1] = 293T cells transfected with human TRPA1, allylisothiocyanate 20 μM, concentration for 50% inhibitory rate
[2] = allylisothiocyanate 20 μM stimulation, FLIPR calcium assay

T1 sequence (O75762 whole entry): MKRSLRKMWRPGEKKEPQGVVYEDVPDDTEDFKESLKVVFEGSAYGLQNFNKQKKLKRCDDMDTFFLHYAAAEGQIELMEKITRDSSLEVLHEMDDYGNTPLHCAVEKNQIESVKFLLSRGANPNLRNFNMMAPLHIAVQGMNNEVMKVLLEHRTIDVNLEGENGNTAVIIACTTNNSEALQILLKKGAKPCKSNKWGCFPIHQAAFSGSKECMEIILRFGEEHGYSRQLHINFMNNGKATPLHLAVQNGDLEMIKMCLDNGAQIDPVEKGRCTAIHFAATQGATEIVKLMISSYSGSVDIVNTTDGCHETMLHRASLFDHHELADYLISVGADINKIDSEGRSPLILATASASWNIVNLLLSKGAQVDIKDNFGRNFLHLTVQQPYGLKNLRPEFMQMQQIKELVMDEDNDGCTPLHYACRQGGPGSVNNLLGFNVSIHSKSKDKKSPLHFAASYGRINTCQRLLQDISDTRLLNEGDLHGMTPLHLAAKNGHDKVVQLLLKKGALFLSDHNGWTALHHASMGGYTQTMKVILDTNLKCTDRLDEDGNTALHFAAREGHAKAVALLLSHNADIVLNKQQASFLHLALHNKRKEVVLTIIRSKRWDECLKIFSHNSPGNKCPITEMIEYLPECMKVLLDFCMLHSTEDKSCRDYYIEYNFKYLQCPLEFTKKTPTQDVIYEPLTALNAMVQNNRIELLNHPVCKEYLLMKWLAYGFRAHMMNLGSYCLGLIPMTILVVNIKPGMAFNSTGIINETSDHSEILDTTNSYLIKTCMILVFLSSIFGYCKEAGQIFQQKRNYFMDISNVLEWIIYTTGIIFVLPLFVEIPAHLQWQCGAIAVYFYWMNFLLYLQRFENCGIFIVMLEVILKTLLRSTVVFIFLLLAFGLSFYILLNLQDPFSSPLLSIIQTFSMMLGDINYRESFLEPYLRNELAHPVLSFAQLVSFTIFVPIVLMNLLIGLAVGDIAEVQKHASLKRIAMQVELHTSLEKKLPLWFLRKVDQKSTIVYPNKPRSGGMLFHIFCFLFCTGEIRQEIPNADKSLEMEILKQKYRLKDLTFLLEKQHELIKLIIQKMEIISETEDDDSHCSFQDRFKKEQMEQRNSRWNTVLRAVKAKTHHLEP

Row | IC50 [1] | IC50 [2] | Structure (SMILES)
1 | 120 nM |  | O=C(NCc1cccc(Oc2ccc(Cl)cc2)c1)[C@@H]1CCCN1S(=O)(=O)c1ccc(Cl)s1 [Example 17, (2S)-N-{[3-(4-chlorophenoxy)phenyl]methyl}-1-(5-chlorothiophene-2-sulfonyl)pyrrolidine-2-carboxamide]
2 |  | 210 nM | O=C(NCc1cccc(Oc2ccc(C(F)(F)F)cc2)c1)[C@@H]1CC(F)(F)CN1S(=O)(=O)c1ccc(F)cc1 [Example 159, (2S)-4,4-difluoro-1-(4-fluorophenyl)sulfonyl-N-[[3-[4-(trifluoromethyl)phenoxy]phenyl]methyl]pyrrolidine-2-carboxamide]
3 | 220 nM |  | O=C(NCc1ccc(Oc2ccccc2)cc1)[C@@H]1CCCN1S(=O)(=O)c1ccc(Cl)s1 [Example 1, (2S)-1-(5-chlorothiophene-2-sulfonyl)-N-[(4-phenoxyphenyl)methyl]pyrrolidine-2-carboxamide]
4 | 100 nM |  | O=C(NCc1ccc(Oc2cccc(C(F)(F)F)c2)cc1)[C@@H]1CCCN1S(=O)(=O)c1ccc(Cl)s1 [Example 6, (2S)-1-(5-chlorothiophene-2-sulfonyl)-N-({4-[3-(trifluoromethyl)phenoxy]phenyl}methyl)pyrrolidine-2-carboxamide]
5 | 180 nM |  | O=C(NCc1ccc(COc2ccc(C(F)(F)F)cc2)cc1Cl)[C@@H]1CCCN1S(=O)(=O)c1ccc(Cl)s1 [Example 74]
6 |  | 110 nM | O=C(NCc1cccc(OCc2ccc(C(F)(F)F)cc2)c1)[C@@H]1[C@H]2CC[C@H](C2)N1S(=O)(=O)c1ccsc1 [Example 215, (1S,2S,4R)-3-(3-thienylsulfonyl)-N-[[3-[[4-(trifluoromethyl)phenyl]methoxy]phenyl]methyl]-3-azabicyclo[2.2.1]heptane-2-carboxamide]
7 |  | 99 nM | O=C(NCc1cccc(OCc2ccc(C(F)(F)F)cc2)c1)[C@@H]1C[C@H]2C[C@H]2N1S(=O)(=O)c1ccc(F)cc1 [Example 173, (1R,3S,5R)-4-(4-fluorophenyl)sulfonyl-N-[[3-[[4-(trifluoromethyl)phenyl]methoxy]phenyl]methyl]-4-azabicyclo[3.1.0]hexane-3-carboxamide]
8 | 80 nM |  | O=C(NCc1cccc(Oc2cccc(C(F)(F)F)c2)c1)[C@@H]1CCCN1S(=O)(=O)c1ccc(Cl)s1 [Example 19, (2S)-1-(5-chlorothiophine-2-sulfonyl)-N-({3-[3-(trifluoro-methyl)phenoxy]phenyl}methyl)pyrrolidine-2-carboxamide]
9 | 450 nM |  | O=C(NCc1ccc(Oc2ccccc2C(F)(F)F)cc1)[C@@H]1CCCN1S(=O)(=O)c1ccc(Cl)s1 [Example 10, (2S)-1-(5-chlorothiophene-2-sulfonyl)-N-({4-[2-(trifluoro-methyl)phenoxy]phenyl}methyl)pyrrolidine-2-carboxamide]
10 | 420 nM |  | O=C(NCc1ccc(COc2ccccc2C(F)(F)F)cc1)[C@@H]1CCCN1S(=O)(=O)c1ccc(Cl)s1 [Example 60, (2S)-1-(5-chlorothiophene-2-sulfonyl)-N-((4-{[2-(trifluoro-methyl)phenoxy]methyl}phenyl)methyl)pyrrolidine-2-carboxamide]
11 | 220 nM |  | O=C(NCc1ccc(F)c(Oc2ccc(C(F)(F)F)cc2)c1F)[C@@H]1CCCN1S(=O)(=O)c1ccc(Cl)s1 [Example 27, (2S)-1-(5-chlorothiophene-2-sulfonyl)-N-({2,4-difluoro-3-[4-(trifluoro-methyl)phenoxy]phenyl}methyl)pyrrolidine-2-carboxamide]
12 | 10 nM |  | O=C(NCc1cccc(OCc2ccc(Cl)cc2)c1)[C@@H]1CCCN1S(=O)(=O)c1ccc(Cl)s1 [Example 98]
13 |  | 66 nM | O=C(NCc1cccc(OCc2ccc(C(F)(F)F)cc2)c1)[C@@H]1CCCN1S(=O)(=O)c1ccccc1 [Example 191, (2S)-1-(benzenesulfonyl)-N-[[3-[[4-(trifluoromethyl)phenyl]methoxy]phenyl]methyl]pyrrolidine-2-carboxamide]
14 |  | 980 nM | O=C(NCc1cccc(OCc2ccc(C(F)(F)F)cc2)c1)[C@@H]1CCCN1S(=O)(=O)c1nccs1 [Example 184, (2S)-1-thiazol-2-ylsulfonyl-N-[[3-[[4-(trifluoromethyl)phenyl]methoxy]phenyl]methyl]pyrrolidine-2-carboxamide]
15 | 380 nM |  | O=C(NCc1cccc(Oc2ccccc2C(F)(F)F)c1)[C@@H]1CCCN1S(=O)(=O)c1ccc(Cl)s1 [Example 23, (2S)-1-(5-chlorothiophene-2-sulfonyl)-N-({3-[2-(trifluoro-methyl)phenoxy]phenyl}methyl)pyrrolidine-2-carboxamide]
16 |  | 2200 nM | O=C(NCc1cccc(OCc2ccc(C(F)(F)F)cc2)c1)[C@@H]1[C@H](O)CCN1S(=O)(=O)c1ccc(F)cc1 [Example 168, (2S,3R)-1-(4-fluorophenyl)sulfonyl-3-hydroxy-N-[[3-[[4-(trifluoromethyl)phenyl]methoxy]phenyl]methyl]pyrrolidine-2-carboxamide]
17 | 250 nM |  | O=C(NCc1ccc(COc2cccc(Cl)c2)cc1)[C@@H]1CCCN1S(=O)(=O)c1ccc(Cl)s1 [Example 56, (2S)-N-({4-[(3-chlorophenoxy)methyl]phenyl}methyl)-1-(5-chlorothiophene-2-sulfonyl)pyrrolidine-2-carboxamide]

Row | IC50 [1] | IC50 [2] | Structure (SMILES)
18 | 88 nM |  | O=C(NCc1ccc(Oc2ccc(OC(F)(F)F)cc2)cc1)[C@@H]1CCCN1S(=O)(=O)c1ccc(Cl)s1 [Example 3]
19 |  | 9800 nM | C[C@@H](Oc1cccc(CNC(=O)[C@@H]2CCCN2S(=O)(=O)c2ccc(F)cc2)c1)c1ccccn1 [Example 146, (2S)-1-(4-fluorophenyl)sulfonyl-N-[[3-[(1R)-1-(2-pyridyl)ethoxy]phenyl]methyl]pyrrolidine-2-carboxamide]
20 |  | 290 nM | O=C(NCc1cccc(OCc2ccc(C(F)(F)F)cc2)c1)[C@@H]1CCCN1S(=O)(=O)c1cnc2ccccc2c1 [Example 206, (2S)-1-(3-quinolylsulfonyl)-N-[[3-[[4-(trifluoromethyl)phenyl]methoxy]phenyl]methyl]pyrrolidine-2-carboxamide]
21 |  | 210 nM | O=C(NCc1cccc(Oc2ccc(C(F)(F)F)cc2)c1)[C@@H]1C=CCN1S(=O)(=O)c1ccco1 [Example 160, (2S)-1-(2-furylsulfonyl)-N-[[3-[4-(trifluoromethyl)phenoxy]phenyl]methyl]-2,5-dihydropyrrole-2-carboxamide]
22 | 15 nM |  | O=C(NCc1cccc(OCc2cccc(F)c2)c1)[C@@H]1CCCN1S(=O)(=O)c1ccc(Cl)s1 [Example 103]
23 |  | 310 nM | O=C(NCc1ccc(Oc2cccc(C(F)(F)F)c2)cc1)[C@@H]1CCCN1S(=O)(=O)c1ccoc1 [Example 153, (2S)-1-(3-furylsulfonyl)-N-[[4-[3-(trifluoromethyl)phenoxy]phenyl]methyl]pyrrolidine-2-carboxamide]
24 |  | 1300 nM | CN(C)c1cccc(Oc2cccc(CNC(=O)[C@@H]3CCCN3S(=O)(=O)c3ccc(F)cc3)c2)c1 [Example 116, (2S)-N-[[3-[3-(dimethylamino)phenoxy]phenyl]methyl]-1-(4-fluorophenyl)sulfonyl-pyrrolidine-2-carboxamide]
25 | 76 nM |  | O=C(NCc1cccc(OCc2ccccc2)c1)[C@@H]1CCCN1S(=O)(=O)c1ccc(F)c(F)c1 [Example 110]
26 |  | 1700 nM | O=C(NCc1cccc(OCc2ccc(C(F)(F)F)cc2)c1)[C@@H]1C[C@H](O)CN1S(=O)(=O)c1ccc(F)cc1 [Example 170, (2S,4S)-1-(4-fluorophenyl)sulfonyl-4-hydroxy-N-[[3-[[4-(trifluoromethyl)phenyl]methoxy]phenyl]methyl]pyrrolidine-2-carboxamide]
27 | 227 nM |  | O=C(NCc1ccc(COc2ccc(C(F)(F)F)cc2)cc1)[C@@H]1CCCN1S(=O)(=O)c1ccc(Cl)s1 [Example 42, (2S)-1-(5-chlorothiophene-2-sulfonyl)-N-((4-{[4-(trifluoro-methyl)phenoxy]methyl}phenyl)methyl)pyrrolidine-2-carboxamide]
28 |  | 17 nM | O=C(NCc1cccc(OCc2ccc(Cl)cc2)c1)[C@@H]1CCCN1S(=O)(=O)c1ccc(F)cc1 [Example 120, (2S)-N-[[3-[(4-chlorophenyl)methoxy]phenyl]methyl]-1-(4-fluorophenyl)sulfonyl-pyrrolidine-2-carboxamide]
29 | 19 nM |  | O=C(NCc1cccc(Oc2ccc(C(F)(F)F)cc2)c1)[C@@H]1C=CCN1S(=O)(=O)c1ccc(Cl)s1 [Example 32, (2S)-1-(5-chlorothiophene-2-sulfonyl)-N-({3-[4-(trifluoro-methyl)phenoxy]phenyl}methyl)-2,5-dihydropyrrole-2-carboxamide]
30 |  | 60 nM | O=C(NCc1cccc(Oc2ccc(C(F)(F)F)cc2)c1)[C@@H]1CCCN1S(=O)(=O)c1ccc(F)c(F)c1 [Example 187, (2S)-1-(3,4-difluorophenyl)sulfonyl-N-[[3-[4-(trifluoromethyl)phenoxy]phenyl]methyl]pyrrolidine-2-carboxamide]
31 | 94 nM |  | O=C(NCc1ccc(OCc2ccccc2)cc1)[C@@H]1CCCN1S(=O)(=O)c1ccc(Cl)s1 [Example 91]
32 | 390 nM |  | O=C(NCc1ccc(COc2ccc(F)cc2)cc1)[C@@H]1CCCN1S(=O)(=O)c1ccc(Cl)s1 [Example 46, (2S)-1-(5-chlorothiophene-2-sulfonyl)-N-({4-[(4-fluoro-phenoxy)methyl]phenyl}methyl)pyrrolidine-2-carboxamide]
33 |  | 1100 nM | N#Cc1cccc(S(=O)(=O)N2CCC[C@H]2C(=O)NCc2cccc(OCc3ccc(C(F)(F)F)cc3)c2)c1 [Example 194, (2S)-1-(3-cyanophenyl)sulfonyl-N-[[3-[[4-(trifluoromethyl)phenyl]methoxy]phenyl]methyl]pyrrolidine-2-carboxamide]
34 |  | 1300 nM | O=C(NCc1cccc(OCc2ccc(C(F)(F)F)cc2)c1)[C@@H]1C[C@@H](O)CN1S(=O)(=O)c1ccco1 [Example 180, (2S,4R)-1-(2-furylsulfonyl)-4-hydroxy-N-[[3-[[4-(trifluoromethyl)phenyl]methoxy]phenyl]methyl]pyrrolidine-2-carboxamide]
